Laboratory results as given in PubChem BioAssay (NCI).
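GI50: concentration for 50% inhibition of growth. TGI: total growth inhibition.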

Tests used:
Experiment in all cases: DTP human tumour cell line panel, 384-well format
UACC-257 melanoma = test system: UACC-257 melanoma
NCI-H460 NSCLC = test system: NCI-H460 NSCLC
SF-295 CNS = test system: SF-295 CNS
SK-MEL-2 melanoma = test system: SK-MEL-2 melanoma
MALME-3M melanoma = test system: MALME-3M melanoma
EKVX NSCLC = test system: EKVX NSCLC
IGROV1 ovarian = test system: IGROV1 ovarian
RPMI-8226 leukemia = test system: RPMI-8226 leukemia
NCI-H322M lung = test system: NCI-H322M lung
U251 glioblastoma = test system: U251 glioblastoma
NCI/ADR-RES ovarian = test system: NCI/ADR-RES ovarian
SK-MEL-28 melanoma = test system: SK-MEL-28 melanoma
UACC-62 melanoma = test system: UACC-62 melanoma
HCT-15 colon = test system: HCT-15 colon
OVCAR-4 ovarian = test system: OVCAR-4 ovarian
OVCAR-5 ovarian = test system: OVCAR-5 ovarian
MDA-MB-435 melanoma = test system: MDA-MB-435 melanoma
MDA-MB-468 breast = test system: MDA-MB-468 breast
HL-60(TB) leukemia = test system: HL-60(TB) leukemia
SF-539 CNS = test system: SF-539 CNS
NCI-H522 lung = test system: NCI-H522 lung
HT29 colon = test system: HT29 colon
SW-620 colon = test system: SW-620 colon
NCI-H226 lung = test system: NCI-H226 lung
SN12C renal = test system: SN12C renal
MCF7 breast = test system: MCF7 breast
RXF 393 renal = test system: RXF 393 renal
CCRF-CEM leukemia = test system: CCRF-CEM leukemia

With `COc1cccc(-c2cc(=O)c3ccccc3o2)c1N` the GI50 (UACC-257 melanoma) was 5.54 µM, the TGI (UACC-257 melanoma) was 37.2 µM and the GI50 (NCI-H460 NSCLC) was 66.1 µM. The TGI (NCI-H460 NSCLC) was greater than 100 µM, the GI50 (SF-295 CNS) was greater than 100 µM and the TGI (SF-295 CNS) was greater than 100 µM. The GI50 (SK-MEL-2 melanoma) was 27.3 µM, the TGI (SK-MEL-2 melanoma) was 55.7 µM and the GI50 (MALME-3M melanoma) was 2.25 µM. The TGI (MALME-3M melanoma) was 5.26 µM, the GI50 (EKVX NSCLC) was 37.1 µM and the TGI (EKVX NSCLC) was greater than 100 µM. The GI50 (IGROV1 ovarian) was 30.7 µM, the TGI (IGROV1 ovarian) was greater than 100 µM and the GI50 (RPMI-8226 leukemia) was 34.4 µM. It also gave a TGI (RPMI-8226 leukemia) greater than 100 µM, a GI50 (NCI-H322M lung) greater than 100 µM and a TGI (NCI-H322M lung) greater than 100 µM. The GI50 (U251 glioblastoma) was 97.2 µM, the TGI (U251 glioblastoma) was greater than 100 µM and the GI50 (NCI/ADR-RES ovarian) was 25.1 µM. The TGI (NCI/ADR-RES ovarian) was 74.7 µM, the GI50 (SK-MEL-28 melanoma) was 4.03 µM and the TGI (SK-MEL-28 melanoma) was 9.78 µM. It also gave a GI50 (UACC-62 melanoma) of 4.95 µM, a TGI (UACC-62 melanoma) of 28.9 µM and a GI50 (HCT-15 colon) of 91.8 µM. It also gave a TGI (HCT-15 colon) greater than 100 µM, a GI50 (OVCAR-4 ovarian) of 28.1 µM and a TGI (OVCAR-4 ovarian) greater than 100 µM. For the same compound, the GI50 (OVCAR-5 ovarian) was 43.1 µM, the TGI (OVCAR-5 ovarian) was greater than 100 µM and the GI50 (MDA-MB-435 melanoma) was 10.4 µM. For the same compound, the TGI (MDA-MB-435 melanoma) was greater than 100 µM, the GI50 (MDA-MB-468 breast) was 0.278 µM and the TGI (MDA-MB-468 breast) was 0.844 µM. It also gave a GI50 (HL-60(TB) leukemia) of 2.79 µM, a TGI (HL-60(TB) leukemia) of 21.2 µM and a GI50 (SF-539 CNS) greater than 100 µM. The TGI (SF-539 CNS) was greater than 100 µM, the GI50 (NCI-H522 lung) was 30 µM and the TGI (NCI-H522 lung) was greater than 100 µM. The GI50 (HT29 colon) was 13.2 µM, the TGI (HT29 colon) was greater than 100 µM and the GI50 (SW-620 colon) was 18.8 µM. For the same compound, the TGI (SW-620 colon) was greater than 100 µM, the GI50 (NCI-H226 lung) was 25 µM and the TGI (NCI-H226 lung) was 70.2 µM. The GI50 (SN12C renal) was 72.4 µM, the TGI (SN12C renal) was greater than 100 µM and the GI50 (MCF7 breast) was 88.1 µM. The TGI (MCF7 breast) was greater than 100 µM, the GI50 (RXF 393 renal) was 46.4 µM and the TGI (RXF 393 renal) was greater than 100 µM. For the same compound, the GI50 (CCRF-CEM leukemia) was 23.1 µM and the TGI (CCRF-CEM leukemia) was 67.6 µM.
